Active and inactive are the calls of the source. The calls are words filed in the database; no cut-off is given here.
Key:
[1] = system: Human immunodeficiency virus 1; assay: Compound was evaluated for the antiviral activity against compound resistant virus isolate Y181C with amino acid changes in the HIV-1 reverse transcriptase (RT); assay type: functional, organism-based
[2] = system: Human immunodeficiency virus 1; assay: Compound was evaluated for the antiviral activity against compound resistant virus isolate K103E with amino acid changes in the HIV-1 reverse transcriptase (RT)
[3] = system: Human immunodeficiency virus 1; assay: Compound was evaluated for the antiviral activity against compound resistant virus isolate Y188H with amino acid changes in the HIV-1 reverse transcriptase (RT); assay type: functional, organism-based
[4] = system: Human immunodeficiency virus 1; assay: Compound was evaluated for the antiviral activity against compound resistant virus isolate T1391 with amino acid changes in the HIV-1 reverse transcriptase (RT); assay type: functional, organism-based
[5] = system: Human immunodeficiency virus 1; assay: Compound was evaluated for the antiviral activity against compound resistant virus isolate Y181C/K103N with amino acid changes in the HIV-1 reverse transcriptase (RT); assay type: functional, organism-based
[6] = system: Human immunodeficiency virus 1; assay: Compound was evaluated for the antiviral activity against resistant virus isolate IIIB with amino acid changes in the HIV-1 reverse transcriptase (RT); assay type: functional, organism-based
[7] = system: Human immunodeficiency virus 1; assay: Compound was evaluated for the antiviral activity against compound resistant virus isolate L100I with amino acid changes in the HIV-1 reverse transcriptase (RT); assay type: functional, organism-based
[8] = system: Human immunodeficiency virus 1; assay: Compound was evaluated for the antiviral activity against compound resistant virus isolate 4 x AZT with amino acid changes in the HIV-1 reverse transcriptase (RT); assay type: functional, organism-based
[9] = system: Human immunodeficiency virus 1; assay: Compound was evaluated for the antiviral activity against compound resistant virus isolate P236L with amino acid changes in the HIV-1 reverse transcriptase (RT); assay type: functional, organism-based
[10] = system: Human immunodeficiency virus 1; assay: Compound was evaluated for the antiviral activity against compound resistant virus isolate M184I with amino acid changes in the HIV-1 reverse transcriptase (RT); assay type: functional, organism-based
CEM-SS [11] = assay: Compound was evaluated for the antiviral activity against SIV delta in CEM-SS cells; assay type: functional, cell-based, Homo sapiens
CEM-SS [12] = assay: (§1) Compound was evaluated for the antiviral activity against HIV-1 strain IIIB in CEM-SS cells; assay type: functional, cell-based, Homo sapiens
CEM-SS [13] = assay: Compound was evaluated for the antiviral activity against HIV-1 strain SK1 in CEM-SS cells; assay type: functional, cell-based, Homo sapiens
[14] = Therapeutic index against HIV-1 strain RF in CEM-SS cells was expressed as IC50/EC50; assay type: organism-based, Human immunodeficiency virus 1; details: for TI: human immunodeficiency virus 1, cem-ss
[15] = Therapeutic index against HIV-1 strain SK1 in CEM-SS cells was expressed as IC50/EC50; assay type: cell-based, Human immunodeficiency virus 1; details: for selectivity ratio: human immunodeficiency virus 1, CEM-SS cells infected with HIV-1 strain SK1, read-out: TI; for TI: human immunodeficiency virus 1, cem-ss
[16] = Therapeutic index against HIV-1 strain IIIB in CEM-SS cells was expressed as IC50/EC50; assay type: cell-based, Human immunodeficiency virus 1; details: for TI: human immunodeficiency virus 1, cem-ss
CEM-SS [17] = assay: Compound was evaluated for the antiviral activity against HIV-1 strain RF in CEM-SS cells; assay type: functional, cell-based, Homo sapiens
[18] = Therapeutic index against SIV delta in CEM-SS cells was expressed as IC50/EC50; assay type: cell-based; details: simian immunodeficiency virus; for TI: cem-ss
CEM-SS [19] = assay: Compound was evaluated for the antiviral activity against HIV-1 strain SK1 in CEM-SS cells; IA: Inactive; assay type: functional, cell-based; details: Homo sapiens
U-937 = assay: (§2) Compound was evaluated for the anti-HIV activity against HIV strain IIIB in U937 monocytic cell; assay type: functional, cell-based; details: Homo sapiens
AA5 = assay: (§3) Compound was evaluated for the anti-HIV activity against HIV strain IIIB in AA5 EBV-infected B-cell; assay type: functional, cell-based; details: Homo sapiens
[20] = system: Human immunodeficiency virus 1; assay: Compound was evaluated for the antiviral activity against compound resistant virus isolate K103N with amino acid changes in the HIV-1 reverse transcriptase (RT); assay type: functional, organism-based
Homo sapiens [21] = organism: Homo sapiens; assay: Compound was evaluated for the anti-HIV activity against HIV strain TEKI in fresh peripheral blood mononuclear cell (PBMC). Value was expressed as EC50; assay type: functional, organism-based
[22] = Compound was evaluated for the anti-HIV activity against HIV strain BaL in monocyte; assay type: functional; details: Homo sapiens
Homo sapiens [23] = organism: Homo sapiens; assay: Compound was evaluated for the anti-HIV activity against HIV strain ROJO in fresh peripheral blood mononuclear cell (PBMC); assay type: functional, organism-based
MT2 = assay: Compound was evaluated for the anti-HIV activity against HIV strain IIIB in MT2 T-cells; assay type: functional, cell-based, Homo sapiens
CCRF-CEM [24] = assay: Compound was evaluated for the anti-HIV activity against HIV strain SK1 in CEM-SS T-cells; assay type: functional, cell-based, Homo sapiens
CEM-SS [25] = assay: Compound was evaluated for the antiviral activity against HIV-2 strain ROD in CEM-SS cells; assay type: functional, Homo sapiens
Homo sapiens [26] = organism: Homo sapiens; assay: Compound was evaluated for the anti-HIV activity against HIV strain ADA in monocyte macrophages; assay type: functional, organism-based
[27] = system: Human immunodeficiency virus 1; assay: Compound was evaluated for the antiviral activity against compound resistant virus isolate K101E with amino acid changes in the HIV-1 reverse transcriptase (RT); assay type: functional, organism-based
CEM-SS [28] = assay: Compound was evaluated for the anti-HIV activity against HIV strain IIIB in CEM-SS Value was expressed as EC50; assay type: functional, cell-based; details: Homo sapiens
[29] = as §2; assay type: functional, cell-based; details: Homo sapiens, U-937
Homo sapiens [30] = organism: Homo sapiens; assay: Compound was evaluated for the anti-HIV activity against HIV strain BaL in monocyte macrophages; assay type: functional, organism-based
B-cell = assay: as §3; assay type: functional, cell-based; details: Homo sapiens
[31] = system: Human immunodeficiency virus 1; assay: Compound was evaluated for the antiviral activity against compound resistant virus isolate V1081 with amino acid changes in the HIV-1 reverse transcriptase (RT); assay type: functional, organism-based
CCRF-CEM [32] = assay: Compound was evaluated for the anti-HIV activity against HIV strain IIIB in CEM-SS T-cells; assay type: functional, cell-based; details: Homo sapiens
[33] = Therapeutic index against HIV-2 strain ROD in CEM-SS cells was expressed as IC50/EC50; assay type: organism-based; details: human immunodeficiency virus 2, CEM-SS cells infected with HIV-2 strain ROD; read-out: TI
Homo sapiens [34] = organism: Homo sapiens; assay: Compound was evaluated for the anti-HIV activity against HIV strain TEKI in fresh peripheral blood mononuclear cell (PBMC); assay type: functional, organism-based
CCRF-CEM [35] = assay: Compound was evaluated for the anti-HIV activity against HIV strain IIIB in 174 x CEM T-cell:B-cell fusion; assay type: functional, cell-based; details: Homo sapiens
CEM-SS [36] = assay: as §1; assay type: functional; details: Homo sapiens

In the case of `Cc1cn([C@H]2C[C@H](N=[N+]=[N-])[C@@H](CO)O2)c(=O)[nH]c1=O` [ZIDOVUDINE], the EC50 ([1]; Human immunodeficiency virus 1) is reported as 6 nM, the EC50 [2] is reported as 4 nM and the EC50 [3] is reported as less than 3 nM. It also gave an EC50 [4] of 40 nM, an EC50 [5] of less than 30 nM and an EC50 ([6]; Human immunodeficiency virus 1) of 9 nM. It also gave an EC50 [7] of less than 3 nM, an EC50 ([8]; Human immunodeficiency virus 1) greater than 1000 nM and an EC50 ([9]; Human immunodeficiency virus 1) of […]. The EC50 ([10]; Human immunodeficiency virus 1) was 10 nM.
With `CCCc1cc(=O)oc2c3c(c4c(c12)OC(C)(C)C=C4)O[C@H](C)[C@@H](C)C3=O` (stereo in doubt; (-)-2) the IC50 (CEM-SS [11]; Homo sapiens, CEM-SS) was greater than 10000 nM, the EC50 (CEM-SS [11]; cem-ss) was 6120 nM and the IC50 (CEM-SS [12]; Homo sapiens, CEM-SS) was greater than 10000 nM. For the same compound, the EC50 (CEM-SS [12]; cem-ss) was 1880 nM, the EC50 (CEM-SS [13]; Homo sapiens, CEM-SS) was 270 nM and the IC50 (CEM-SS [13]; Homo sapiens, CEM-SS) was greater than 10000 nM. For the same compound, the TI [14] was greater than 3, the selectivity ratio [15] was greater than 37 and the TI [16] was greater than 5. It also gave an IC50 (CEM-SS [17]; Homo sapiens, CEM-SS) greater than 10000 nM, an EC50 (CEM-SS [17]; cem-ss) of 3410 nM and a TI [18] of 2.
In the case of `CCCc1cc(=O)oc2c3c(c4c(c12)OC(C)(C)C=C4)O[C@H](C)[C@@H](C)[C@@H]3O` [CALANOLIDE A], the EC50 (CEM-SS [12]; Homo sapiens, CEM-SS) is reported as 140 nM, the EC50 (CEM-SS [17]; cem-ss) is reported as 170 nM and the EC25 (CEM-SS [19]) is reported as “inactive”.
For `CCCc1cc(=O)oc2c3c(c4c(c12)OC(C)(C)C=C4)O[C@H](C)[C@@H](C)C3=O` (racemic), the EC50 (U-937) was 3000 nM, the EC50 [1] was 590 nM and the IC50 (CEM-SS [11]; cem-ss) was 6600 nM. For the same compound, the EC50 (CEM-SS [12]; cem-ss) was 510 nM, the IC50 (CEM-SS [12]; cem-ss) was 5600 nM and the EC50 (AA5) was 2800 nM. For the same compound, the EC50 [20] was greater than 100000 nM, the IC50 (CEM-SS [13]; cem-ss) was 6300 nM and the EC50 [6] was 320 nM. For the same compound, the EC50 (Homo sapiens [21]) was greater than 10000 nM, the TI [14] was 14 and the EC50 [22] was 510 nM. It also gave a TI [15] of 37, a TI [16] of 11 and an EC50 [8] of 3600 nM. For the same compound, the EC50 (Homo sapiens [23]) was 2180 nM, the EC50 (MT2) was 560 nM and the EC50 (CCRF-CEM [24]) was 270 nM. It also gave an EC50 (CEM-SS [17]; cem-ss) of 400 nM, an IC50 (CEM-SS [17]; cem-ss) of 5800 nM and a TI [18] of 5. It also gave an EC25 (CEM-SS [25]) of 5570 nM, an IC25 (CEM-SS [25]) of 13800 nM and an EC50 [9] of 2030 nM. For the same compound, the EC50 (Homo sapiens [26]) was 330 nM, the EC50 [27] was greater than 100000 nM and the EC50 (CEM-SS [28]) was 520 nM. The EC50 [10] was 530 nM.
`CCCc1cc(=O)oc2c3c(c4c(c12)OC(C)(C)C=C4)O[C@H](C)[C@@H](C)C3=O` (stereo in doubt; (+)-2) gave an EC50 [29] greater than 10000 nM, an EC50 [1] of 2100 nM and an EC50 (CEM-SS [11]; cem-ss) of 1660 nM. For the same compound, the EC50 (CEM-SS [12]; cem-ss) was 1000 nM, the EC50 (Homo sapiens [30]) was 2190 nM and the EC50 (B-cell) was greater than 10000 nM. The EC50 [31] was greater than 100000 nM, the EC50 [3] was greater than 100000 nM and the EC50 (CCRF-CEM [32]) was 1090 nM. The EC50 [4] was greater than 100000 nM, the EC50 [20] was 30600 nM and the EC50 (CEM-SS [13]; cem-ss) was 170 nM. The EC50 [5] was 6190 nM, the EC50 [6] was 1470 nM and the selectivity ratio [33] was 2. It also gave a TI [14] greater than 11, an EC50 (Homo sapiens [34]) greater than 10000 nM and an EC50 [7] greater than 100000 nM. It also gave a TI [15] greater than 58, a TI [16] greater than 10 and an EC50 ([8]; Human immunodeficiency virus 1) of 2730 nM. It also gave an EC50 (Homo sapiens [23]; Homo sapiens) of 2660 nM, an EC50 (MT2) of 2620 nM and an EC50 (CCRF-CEM [24]) of 620 nM. For the same compound, the EC50 (CEM-SS [17]; cem-ss) was 900 nM, the EC50 (CCRF-CEM [35]) was greater than 10000 nM and the TI [18] was 6. For the same compound, the EC25 (CEM-SS [25]) was 15900 nM, the IC25 (CEM-SS [25]) was 34800 nM and the EC50 [9] was 6760 nM. For the same compound, the EC50 (Homo sapiens [26]) was 1760 nM, the EC50 [27] was 26400 nM and the EC50 [10] was 60500 nM.
For `Nc1ccn([C@H]2CC[C@@H](CO)O2)c(=O)n1` [ZALCITABINE], the EC50 (CEM-SS [11]; Homo sapiens, CEM-SS) was 190 nM, the IC50 (CEM-SS [11]; Homo sapiens, CEM-SS) was greater than 5000 nM and the EC50 (CEM-SS [12]; Homo sapiens, CEM-SS) was 20 nM. The EC50 (CEM-SS [13]; Homo sapiens, CEM-SS) was 50 nM, the IC50 (CEM-SS [13]; Homo sapiens, CEM-SS) was greater than 5000 nM and the selectivity ratio [33] was greater than 333. For the same compound, the selectivity ratio ([14]; human immunodeficiency virus 1, CEM-SS cells infected with HIV-1 strain RF, read-out: TI) was greater than 100, the selectivity ratio [15] was greater than 100 and the selectivity ratio ([16]; human immunodeficiency virus 1, CEM-SS cells infected with HIV-1 strain IIIB, read-out: TI) was greater than 250. It also gave an EC25 (CEM-SS [36]) greater than 5000 nM, an EC50 (CEM-SS [17]; Homo sapiens, CEM-SS) of 50 nM and an IC50 (CEM-SS [17]; Homo sapiens, CEM-SS) greater than 5000 nM. It also gave a selectivity ratio ([18]; CEM-SS cells infected with SIV delta, read-out: TI) greater than 26, an EC25 (CEM-SS [25]; Homo sapiens, CEM-SS, read-out: EC25) of 30 nM and an IC25 (CEM-SS [25]; Homo sapiens, CEM-SS, read-out: IC25) greater than 10000 nM.

— ChEMBL document CHEMBL1130930, “In vitro anti-human immunodeficiency virus (HIV) activity of the chromanone derivative, 12-oxocalanolide A, a novel NNRTI” (Bioorg Med Chem Lett, 1998)
